# Measurements from patent US6194422A, “Anthracycline derivatives” (Pharmacia & Upjohn SpA, priority 1997, dated 2001).
# Target: Aβ1-40 peptide monomer (Homo sapiens, UniProt P05067)
# Type: biochemical
# Settings: 50 μM test compound, 20 μM Aβ1-40 monomer, 4 μM pre-formed sonicated Aβ1-40 fibrils, pH 7.4, two hours at 37° C., HPLC
# Description: The activity of the disclosed compounds is assessed according to the procedure reported below. An Aβ1-40 peptide monomer stock solution is prepared by dissolving the peptide in dimethylsulfoxide at a concentration of 33.33 mg/mL. The stock solution is further diluted 1 to 11.5 with dimethylsulfoxide. This solution is then diluted with 10 mM phosphate buffer pH 7.4 containing 150 mM sodium chloride to prepare the test solution. To an eppendorf tube containing 47 μL of Aβ1-40 peptide monomer solution are added 3 μL of a 830 μM water solution of the test compound containing 66.4 μM, based on the Aβ1 -40 monomer content, of pre-formed sonicated Aβ1-40 fibrils: the resulting solution is 20 μM in Aβ1-40 monomer, 50 μM in the test compound and contains 4 μM, based on the Aβ1-40 monomer content, of pre-formed sonicated Aβ1-40 fibrils. The aggregation is allowed to proceed for two hours at 37° C. The suspension is then centrifuged at 15000 rpm for 15 minutes at +4° C., the supernatant is collected and the Aβ1 -40 monomer is quantitated by HPLC. The activity is expressed as the percent of inhibition of the aggregation of a 20 μM Aβ1-40 monomer solution stimulated by 4 μM, based on the Aμ1-40 monomer content, pre-formed sonicated Aμ1-40 fibrils.
# Aβ1-40 peptide monomer, sequence (P05067 672-711 limits assumed): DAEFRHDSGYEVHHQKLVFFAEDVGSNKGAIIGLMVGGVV
row,SMILES,% inhibition (of the aggregation of Aβ1-40 monomer) [%]
1,"CCON=C1CC2NC1(C)Cc1c(O)c3c(c(O)c12)C(=O)c1c(OC)cccc1C3=O (single isomer, unassigned) [lac-I, Anthrazalone O-ethyloxime]",54.2
2,"CON=C1CC2c3c(O)c4c(c(O)c3CC1(C)N2Cc1ccncc1)C(=O)c1cccc(OC)c1C4=O (stereo not drawn) [Compound 1p, 8-N-(4-pyridylmethyl)anthrazalone O-methyloxime]",31.7
3,"COc1ccc(CN2C3CC(=NO)C2(C)Cc2c(O)c4c(c(O)c23)C(=O)c2c(OC)cccc2C4=O)cc1OC (stereo not drawn) [Compound 1a, 8-N-(3,4-dimethoxybenzyl) anthrazalone oxime]",22.9
4,"COc1cccc2c1C(=O)c1c(O)c3c(c(O)c1C2=O)CC1(C)C(=NOCc2ccccc2)CC3N1Cc1ccncc1 (stereo not drawn) [Compound 1q, 8-N-(4-pyridylmethyl)anthrazalone O-benzyloxime]",24.2
5,"C=CCN1C2CC(=NOC)C1(C)Cc1c(O)c3c(c(O)c12)C(=O)c1c(OC)cccc1C3=O (stereo not drawn) [Compound 1c, 8-N-allylanthrazalone O-methyl-oxime]",36.0
6,"CON=C1CC2c3c(O)c4c(c(O)c3CC1(C)N2Cc1ccc(OC)c(OC)c1)C(=O)c1cccc(OC)c1C4=O (stereo not drawn) [Compound 1e, 8-N-(3.4-dimethoxybenzyl)anthrazalone O-methyloxime]",26.2
